Data published in patent EP3383875B1, “3-PYRIMIDINYL PYRROLO [2,3-B] PYRIDINE AS ANTICANCER AGENTS AND THE PROCESS FOR THE PREPARATION THEREOF” (Council Of Scientific & Industrial Research, priority 2015, dated 2017).
Where two headings read alike, the source gives them in different places.

Experiments:
MCF-7 = assay: MTT assay on cancer cell line MCF-7; assay type: cell-based, Human; conditions: Homo sapiens
Experimental: (§1) Cell culture, growth conditions and treatments. […] Different molecules were dissolved in DMSO and were delivered to cell cultures in complete medium.

PC-3 = assay: MTT assay on cancer cell line PC-3; assay type: cell-based, human; conditions: Homo sapiens, Table 9 (for reference), read-out: In vitro cell inhibition, % of inhibition, PC-3
Experimental: as §1

MDA-MB435 = assay: MTT assay on cancer cell line MDA-MB435; assay type: cell-based, Human; conditions: Homo sapiens, MDA-MB-435; MDA-MB435; at 10µM; Table 9 (for reference); read-out: In vitro cell inhibition, % of inhibition, MDA-MB435
Experimental: as §1

HCT-116 = assay: MTT assay on cancer cell line HCT-116; assay type: cell-based, human; conditions: Homo sapiens, at 10µM, Table 9 (for reference), read-out: In vitro cell inhibition, % of inhibition, HCT-116
Experimental: as §1

SHSY-5Y = assay: MTT assay on cancer cell line SHSY-5Y; assay type: cell-based, human; conditions: Homo sapiens, SH-SY5Y
Experimental: as §1

CDK-2/cyclin A = CDK-2/cyclin A (Homo sapiens, UniProt P24941); assay: CDK inhibition assay, CDK-2/cyclin A against Histone HI, 33P-ATP; assay type: biochemical
Experimental: Compounds were evaluated for their ability to inhibit CDK2 and CDK9 as given below.
CDK-2/cyclin A (5-20 mU diluted in 50 mM Hepes pH 7.5, 1 mM DTT, 0.02% Brij35, 100 mM NaCl) was assayed against Histone HI in a final volume of 25.5 µl containing 50 mM Hepes pH7.5, 1 mM DTT, 0.02% Brij35, 100 mM NaCl, Histone HI (1 mg/ml), 10 mM magnesium acetate and 0.02 mM [33P-g-ATP](500-1000 cpm/pmole) and incubated for 30 min at room temperature. Assays were stopped by addition of 5 µl of 0.5 M (3%) orthophosphoric acid and then harvested onto P81 Unifilter plates with a wash buffer of 50 mM orthophosphoric acid.

CDK-9/Cyclin T1 = CDK-9/Cyclin T1 (Homo sapiens, UniProt P50750); assay: CDK inhibition assay, CDK-9/Cyclin T1 against substrate peptide, 33P-ATP; assay type: biochemical
Experimental: (50-1000 cpm/pmole) and incubated for 30 min at room temperature. Assays were stopped by addition of 5 µl of 0.5 M (3%) orthophosphoric acid and then harvested onto P81 Unifilter plates with a wash buffer of 50 mM orthophosphoric acid.

[1] = MCF7, MCF-7, Table 9 (for reference), read-out: In vitro cell inhibition, % of inhibition, MCF-7
[2] = MCF7, read-out: inhibition against MCF-7 cell lines
[3] = SHSY-5Y, Table 9 (for reference), read-out: In vitro cell inhibition, % of inhibition, SHSY-5Y
[4] = read-out: inhibition against SHSY-5Y cell lines
[5] = at 500 nM, Table-6, read-out: In vitro CDK2 % of inhibition
[6] = at 500 nM, read-out: inhibition against CDK2
[7] = at 500 nM, Table-6, read-out: In vitro CDK9 % of inhibition
[8] = at 500 nM, read-out: inhibition against CDK9
[9] = at 500 nM, Table-7, read-out: In vitro CDK2 % of inhibition
[10] = at 500 nM, Table-7, read-out: In vitro CDK9 % of inhibition

CDK-9/Cyclin T1, sequence (P50750 whole entry): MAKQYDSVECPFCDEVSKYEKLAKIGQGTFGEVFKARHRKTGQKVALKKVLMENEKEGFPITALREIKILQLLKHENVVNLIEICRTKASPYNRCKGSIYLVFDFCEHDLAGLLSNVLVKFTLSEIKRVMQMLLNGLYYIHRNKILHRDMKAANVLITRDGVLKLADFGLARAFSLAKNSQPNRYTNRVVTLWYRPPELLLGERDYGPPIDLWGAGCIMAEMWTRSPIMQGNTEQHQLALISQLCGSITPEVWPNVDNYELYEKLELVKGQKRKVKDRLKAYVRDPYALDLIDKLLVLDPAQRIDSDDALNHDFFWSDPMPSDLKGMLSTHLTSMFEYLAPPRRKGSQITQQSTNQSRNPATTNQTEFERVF
CDK-9/Cyclin T1, sequence (O60563 whole entry partner): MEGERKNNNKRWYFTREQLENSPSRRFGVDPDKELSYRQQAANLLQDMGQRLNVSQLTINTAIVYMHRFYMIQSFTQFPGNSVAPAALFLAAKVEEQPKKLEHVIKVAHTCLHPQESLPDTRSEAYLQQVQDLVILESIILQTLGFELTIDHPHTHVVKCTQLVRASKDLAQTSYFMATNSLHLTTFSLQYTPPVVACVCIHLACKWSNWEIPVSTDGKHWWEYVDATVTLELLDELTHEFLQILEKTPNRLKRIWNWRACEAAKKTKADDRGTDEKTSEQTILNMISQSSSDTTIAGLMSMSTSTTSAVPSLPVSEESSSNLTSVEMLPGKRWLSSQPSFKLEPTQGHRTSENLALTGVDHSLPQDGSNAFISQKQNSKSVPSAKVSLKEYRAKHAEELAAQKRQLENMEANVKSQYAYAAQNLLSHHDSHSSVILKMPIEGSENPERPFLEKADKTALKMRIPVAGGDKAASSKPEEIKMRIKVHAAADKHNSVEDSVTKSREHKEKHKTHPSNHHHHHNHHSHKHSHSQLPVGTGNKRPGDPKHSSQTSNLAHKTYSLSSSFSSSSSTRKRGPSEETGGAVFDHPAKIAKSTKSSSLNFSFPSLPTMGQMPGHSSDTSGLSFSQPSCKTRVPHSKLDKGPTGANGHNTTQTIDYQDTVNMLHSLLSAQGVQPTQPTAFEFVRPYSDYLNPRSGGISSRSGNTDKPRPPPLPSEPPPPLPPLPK

Compound	inhibition at 0.5 µM (CDK-2/cyclin A; [5])	inhibition at 0.5 µM (CDK-2/cyclin A; [6])	inhibition at 0.5 µM (CDK-9/Cyclin T1; [7])	inhibition at 0.5 µM (CDK-9/Cyclin T1; [8])	inhibition at 10 µM (MCF-7; [1])	inhibition at 10 µM (MCF-7; [2])	inhibition at 10 µM (PC-3)	inhibition at 10 µM (MDA-MB435)	inhibition at 10 µM (HCT-116)	inhibition at 10 µM (SHSY-5Y; [3])	also measured
Nc1nccc(-c2c[nH]c3ncc(-c4nccc5ccccc45)cc23)n1 [1C20, 4-(5-(isoquinolin-1-yl)-1H-pyrrolo[2,3-b]pyridin-3-yl)pyrimidin-2-amine]	–	–	–	–	> 50%	> 50%	> 50%	> 50%	> 70%	> 50%	–
Nc1nccc(-c2c[nH]c3ncc(-c4ccc(Cl)cc4)cc23)n1 [1C12, 4-(5-(4-chlorophenyl)-1H-pyrrolo[2,3-b]pyridin-3-yl)pyrimidin-2-amine]	–	–	–	–	> 70%	> 70%	> 70%	> 70%	> 70%	> 70%	inhibition at 10 µM (SHSY-5Y; [4]): > 70%
Cc1ccc(-c2cnc3[nH]cc(-c4ccnc(N)n4)c3c2)cc1 [1C6, 4-(5-(p-tolyl)-1H-pyrrolo[2,3-b]pyridin-3-yl)pyrimidin-2-amine]	–	–	–	–	> 70%	> 70%	> 50%	> 70%	> 70%	> 70%	inhibition at 10 µM (SHSY-5Y; [4]): > 70%
CSc1ccc(-c2cnc3[nH]cc(-c4ccnc(N)n4)c3c2)cc1 [1C8, 4-(5-(4-(methylthio)phenyl)-1H-pyrrolo[2,3-b]pyridin-3-yl)pyrimidin-2-amine]	–	–	–	–	> 50%	> 50%	< 50%	> 70%	> 70%	> 50%	–
Nc1nccc(-c2c[nH]c3ncc(-c4cc5ccccc5s4)cc23)n1 [1C18, 4-(5-(benzo[b]thiophen-2-yl)-1H-pyrrolo[2,3-b]pyridin-3-yl)pyrimidin-2-amine]	–	–	–	–	> 70%	–	> 70%	< 50%	> 70%	> 70%	inhibition at 10 µM (SHSY-5Y; [4]): > 70%
Nc1nccc(-c2c[nH]c3ncc(-c4ccc(OC(F)(F)F)cc4)cc23)n1 [1C3, 4-(5-(4-(trifluoromethoxy)phenyl)-1H-pyrrolo[2,3-b]pyridin-3-yl)pyrimidin-2-amine]	–	–	–	–	> 70%	> 70%	> 50%	> 70%	> 70%	> 70%	inhibition at 10 µM (SHSY-5Y; [4]): > 70%
Nc1nccc(-c2c[nH]c3ncc(-c4ccc(C=O)cc4)cc23)n1 [1C13, 4-(3-(2-aminopyrimidin-4-yl)-1H-pyrrolo[2,3-b]pyridin-5-yl)benzaldehyde]	–	–	–	–	> 50%	> 50%	> 50%	> 50%	> 50%	> 50%	–
Nc1nccc(-c2c[nH]c3ncc(-c4cccc(F)c4)cc23)n1 [1C5, 4-(5-(3-fluorophenyl)-1H-pyrrolo[2,3-b]pyridin-3-yl)pyrimidin-2-amine]	–	–	–	–	> 70%	> 70%	< 50%	> 70%	> 70%	> 70%	inhibition at 10 µM (SHSY-5Y; [4]): > 70%
Nc1nccc(-c2c[nH]c3ncc(-c4ccoc4)cc23)n1 [1C16, 4-(5-(furan-3-yl)-1H-pyrrolo[2,3-b]pyridin-3-yl)pyrimidin-2-amine]	–	–	–	–	> 70%	> 70%	< 50%	> 70%	> 70%	> 70%	inhibition at 10 µM (SHSY-5Y; [4]): > 70%
COc1ccc2[nH]c(-c3cnc4[nH]cc(-c5ccnc(N)n5)c4c3)cc2c1 [1C17, 4-(5-(5-methoxy-1H-indol-2-yl)-1H-pyrrolo[2,3-b]pyridin-3-yl)pyrimidin-2-amine]	–	–	–	–	> 70%	> 70%	> 50%	> 70%	> 70%	< 50%	–
COc1ccc2[nH]c(-c3cnc4[nH]cc(-c5ccnc(NC6CC6)n5)c4c3)cc2c1 [1A17, N-cyclopropyl-4-(5-(5-methoxy-1H-indol-2-yl)-1H-pyrrolo[2,3-b]pyridin-3-yl)pyrimidin-2-amine]	> 50%	> 50%	> 50%	> 50%	–	–	–	–	–	–	–
c1ccc2[nH]c(-c3cnc4[nH]cc(-c5ccnc(NC6CC6)n5)c4c3)cc2c1 [1A19, 4-(5-(1H-indol-2-yl)-1H-pyrrolo[2,3-b]pyridin-3-yl)-N-cyclopropylpyrimidin-2-amine]	> 70%	> 70%	> 70%	> 70%	–	–	–	–	–	–	–
c1ccc(CCNc2nccc(-c3c[nH]c4ncc(-c5ccoc5)cc34)n2)cc1 [1B16, 4-(5-(furan-3-yl)-1H-pyrrolo[2,3-b]pyridin-3-yl)-N-phenethylpyrimidin-2-amine]	–	–	–	–	–	–	–	–	–	–	inhibition at 0.5 µM (CDK-2/cyclin A; [9]): > 70%; inhibition at 0.5 µM (CDK-2/cyclin A; read-out: inhibition against CDK2): > 70%; inhibition at 0.5 µM (CDK-9/Cyclin T1; read-out: In vitro CDK9 % of inhibition): > 70%; inhibition at 0.5 µM (CDK-9/Cyclin T1; read-out: inhibition against CDK9): > 70%
O=Cc1ccc(-c2cnc3[nH]cc(-c4ccnc(NC5CC5)n4)c3c2)cc1 [1A13, 4-(3-(2-(cyclopropylamino)pyrimidin-4-yl)-1H-pyrrolo[2,3-b]pyridin-5-yl)benzaldehyde]	> 70%	> 70%	> 70%	> 70%	–	–	–	–	–	–	–
FC(F)(F)Oc1ccc(-c2cnc3[nH]cc(-c4ccnc(NC5CC5)n4)c3c2)cc1 [1A3, N-cyclopropyl-4-(5-(4-(trifluoromethoxy)phenyl)-1H-pyrrolo[2,3-b]pyridin-3-yl)pyrimidin-2-amine]	> 70%	> 70%	> 70%	> 70%	–	–	–	–	–	–	–

More lines, main results first:

inhibition at 0.5 µM (CDK-2/cyclin A; [5])	inhibition at 0.5 µM (CDK-2/cyclin A; [6])	inhibition at 0.5 µM (CDK-9/Cyclin T1; [7])	inhibition at 0.5 µM (CDK-9/Cyclin T1; [8])	Compound	inhibition at 10 µM (MCF-7; [1])	inhibition at 10 µM (MCF-7; [2])	inhibition at 10 µM (PC-3)	inhibition at 10 µM (MDA-MB435)	inhibition at 10 µM (HCT-116)	inhibition at 10 µM (SHSY-5Y; [3])	also measured
> 50%	> 50%	> 50%	> 50%	Cc1cccc(-c2cnc3[nH]cc(-c4ccnc(NC5CCCC5)n4)c3c2)c1 [1A27, N-cyclopentyl-4-(5-(m-tolyl)-1H-pyrrolo[2,3-b]pyridin-3-yl)pyrimidin-2-amine]	–	–	–	–	–	–	–
> 70%	–	–	–	CN1CC[C@H](c2c(O)cc(O)c3c(=O)cc(-c4ccccc4Cl)oc23)[C@H](O)C1 [Flavopyr idol, flavopiridol, reference compound]	–	–	–	–	–	–	inhibition at 0.5 µM (CDK-9/Cyclin T1; read-out: In vitro CDK9 % of inhibition, at 500 nM, Table-6): > 70%
> 50%	> 50%	> 50%	> 50%	FC(F)(F)Oc1ccc(-c2cnc3[nH]cc(-c4ccnc(NC5CCCCCC5)n4)c3c2)cc1 [1A43, N-cycloheptyl-4-(5-(4-(trifluoromethoxy)phenyl)-1H-pyrrolo[2,3-b]pyridin-3-yl)pyrimidin-2-amine]	–	–	–	–	–	–	–
–	> 70%	–	> 70%	c1ccc2sc(-c3cnc4[nH]cc(-c5ccnc(NC6CCCCCC6)n5)c4c3)cc2c1 [1A58, 4-(5-(benzo[b]thiophen-2-yl)-1H-pyrrolo[2,3-b]pyridin-3-yl)-N-cycloheptylpyrimidin-2-amine]	–	–	–	–	–	–	inhibition at 0.5 µM (CDK-2/cyclin A; [9]): > 70%; inhibition at 0.5 µM (CDK-9/Cyclin T1; [10]): > 70%
> 50%	> 50%	> 50%	> 50%	Clc1ccc(-c2cnc3[nH]cc(-c4ccnc(NC5CCCC5)n4)c3c2)cc1 [1A32, 4-(5-(4-chlorophenyl)-1H-pyrrolo [2,3-b]pyridin-3-yl)-N-cyclopentylpyrimidin-2-amine]	–	–	–	–	–	–	–
> 50%	> 50%	> 50%	> 50%	CSc1ccc(-c2cnc3[nH]cc(-c4ccnc(NC5CCCCCC5)n4)c3c2)cc1 [1A48, N-cycloheptyl-4-(5-(4-(methylthio)phenyl)-1H-pyrrolo[2,3-b]pyridin-3-yl)pyrimidin-2-amine]	–	–	–	–	–	–	–
–	> 70%	–	> 70%	COc1ccc2[nH]c(-c3cnc4[nH]cc(-c5ccnc(NC6CCCCCC6)n5)c4c3)cc2c1 [1A57, N-cycloheptyl-4-(5-(5-methoxy-1H-indol-2-yl)-1H-pyrrolo[2,3-b]pyridin-3-yl)pyrimidin-2-amine]	–	–	–	–	–	–	inhibition at 0.5 µM (CDK-2/cyclin A; [9]): > 70%; inhibition at 0.5 µM (CDK-9/Cyclin T1; [10]): > 70%
